Source: ChEMBL document CHEMBL3885861, “Open TG-GATES”

Species: Rattus norvegicus
Test: Open TG-GATES - Regimen: Daily Repeat
Format: toxicity, organism-based, Sprague-Dawley
Parameters: regimen Daily Repeat, gender Male, age 6 weeks
Conditions: in vivo, po, route gavage; for APTT / Bas / Eos / Fbg / Hb / Ht / Lym / MCH / MCHC / MCV / Mono / Neu / PT / Plat / RBC / Ret / WBC: tissue Blood; for KIDNEY_L / KIDNEY_R / KIDNEY_TOTAL: tissue Kidney; for LIVER: tissue Liver; for A/G / ALP / ALT / AST / BUN / CRE / Ca / Cl / DBIL / GLC / IP / K / LDH / Na / PL / RALB / TBIL / TC / TG / TP / gamma-GTP: tissue Plasma
[1] = 0 mg/kg, 72 h, dose level Control, time 3 day
[2] = 0 mg/kg, […], dose level Control, time 7 day
[3] = 0 mg/kg, […], dose level Control, time 14 day
[4] = 0 mg/kg, […], dose level Control, time 28 day
[5] = 1 mg/kg, 72 h, dose level Middle, time 3 day

Compound: CN1C(C(=O)Nc2ccccn2)=C(O)c2sc(Cl)cc2S1(=O)=O [LORNOXICAM]
- TERMINAL_BW [1]: 242.5 g
- APTT [1]: 20.7 s
- Bas [1]: 0.4%
- Eos [1]: 1%
- Fbg [1]: 223.4 mg/dL
- Hb [1]: 12.9 g/dL
- Ht [1]: 38.6%
- Lym [1]: 79%
- MCH [1]: 21 pg
- MCHC [1]: 33.5%
- MCV [1]: 62.6 fL
- Mono [1]: 2.6%
- Neu [1]: 16.2%
- PT [1]: 11.7 s
- Plat [1]: 126.1 x10_4/uL
- RBC [1]: 617 x10_4/ul
- Ret [1]: 6.1%
- WBC [1]: 110.2 x10_2/uL
- KIDNEY_L [1]: 1 g
- KIDNEY_R [1]: 1 g
- KIDNEY_TOTAL [1]: 2.1 g
- LIVER [1]: 10.9 g
- A/G [1]: 1.7
- ALP [1]: 907.8 IU/L
- ALT [1]: 46.2 IU/L
- AST [1]: 91.2 IU/L
- BUN [1]: 14.4 mg/dL
- CRE [1]: 0.4 mg/dL
- Ca [1]: 10.6 mg/dL
- Cl [1]: 104.2 meq/L
- DBIL [1]: 0.094 mg/dL
- GLC [1]: 222.6 mg/dL
- IP [1]: 6.8 mg/dL
- K [1]: 4.1 meq/L
- LDH [1]: 253.8 IU/L
- Na [1]: 141.6 meq/L
- PL [1]: 145.8 mg/dL
- RALB [1]: 3.5 g/dL
- TBIL [1]: 0.1 mg/dL
- TC [1]: 74.2 mg/dL
- TG [1]: 97.6 mg/dL
- TP [1]: 5.6 g/dL
- gamma-GTP [1]: 1.2 IU/L
- TERMINAL_BW [2]: 279.8 g
- TERMINAL_BW [3]: 335.2 g
- TERMINAL_BW [4]: 380.8 g
- APTT [2]: 20.1 s
- Bas [2]: 0.6%
- Eos [2]: 0.8%
- Fbg [2]: 230.2 mg/dL
- Hb [2]: 13.8 g/dL
- Ht [2]: 40.8%
- Lym [2]: 82%
- MCH [2]: 20.7 pg
- MCHC [2]: 33.7%
- MCV [2]: 61.4 fL
- Mono [2]: 2.2%
- Neu [2]: 13.8%
- PT [2]: 11.4 s
- Plat [2]: 132.2 x10_4/uL
- RBC [2]: 664.6 x10_4/ul
- Ret [2]: 4.8%
- WBC [2]: 106.9 x10_2/uL
- APTT [3]: 21.1 s
- Bas [3]: 0.6%
- Eos [3]: 1%
- Fbg [3]: 221.2 mg/dL
- Hb [3]: 14 g/dL
- Ht [3]: 41%
- Lym [3]: 82%
- MCH [3]: 20.3 pg
- MCHC [3]: 34%
- MCV [3]: 59.6 fL
- Mono [3]: 2.4%
- Neu [3]: 14.2%
- PT [3]: 11.5 s
- Plat [3]: 121.8 x10_4/uL
- RBC [3]: 687.4 x10_4/ul
- Ret [3]: 3.7%
- WBC [3]: 100 x10_2/uL
- APTT [4]: 21.4 s
- Bas [4]: 0.6%
- Eos [4]: 1.2%
- Fbg [4]: 223.4 mg/dL
- Hb [4]: 15.8 g/dL
- Ht [4]: 45.2%
- Lym [4]: 81.6%
- MCH [4]: 20.1 pg
- MCHC [4]: 35%
- MCV [4]: 57.6 fL
- Mono [4]: 1.8%
- Neu [4]: 14.2%
- PT [4]: 11.7 s
- Plat [4]: 108.5 x10_4/uL
- RBC [4]: 784.8 x10_4/ul
- Ret [4]: 2%
- WBC [4]: 101.8 x10_2/uL
- KIDNEY_L [2]: 1.2 g
- KIDNEY_R [2]: 1.2 g
- KIDNEY_TOTAL [2]: 2.4 g
- KIDNEY_L [3]: 1.3 g
- KIDNEY_R [3]: 1.3 g
- KIDNEY_TOTAL [3]: 2.6 g
- KIDNEY_L [4]: 1.4 g
- KIDNEY_R [4]: 1.3 g
- KIDNEY_TOTAL [4]: 2.7 g
- LIVER [2]: 13 g
- LIVER [3]: 14.5 g
- LIVER [4]: 14.4 g
- A/G [2]: 1.7
- ALP [2]: 1004.8 IU/L
- ALT [2]: 33.2 IU/L
- AST [2]: 68.4 IU/L
- BUN [2]: 14 mg/dL
- CRE [2]: 0.4 mg/dL
- Ca [2]: 10.8 mg/dL
- Cl [2]: 102.8 meq/L
- DBIL [2]: 0.1 mg/dL
- GLC [2]: 206 mg/dL
- IP [2]: 6.7 mg/dL
- K [2]: 4 meq/L
- LDH [2]: 206 IU/L
- Na [2]: 140.4 meq/L
- PL [2]: 150 mg/dL
- RALB [2]: 3.6 g/dL
- TBIL [2]: 0.2 mg/dL
- TC [2]: 70.8 mg/dL
- TG [2]: 132.8 mg/dL
- TP [2]: 5.7 g/dL
- gamma-GTP [2]: 1.2 IU/L
- A/G [3]: 1.5
- ALP [3]: 781.8 IU/L
- ALT [3]: 35.6 IU/L
- AST [3]: 66.6 IU/L
- BUN [3]: 15.4 mg/dL
- CRE [3]: 0.4 mg/dL
- Ca [3]: 10.7 mg/dL
- Cl [3]: 104.4 meq/L
- DBIL [3]: 0.096 mg/dL
- GLC [3]: 195 mg/dL
- IP [3]: 6.9 mg/dL
- K [3]: 4 meq/L
- LDH [3]: 196.4 IU/L
- Na [3]: 141.2 meq/L
- PL [3]: 148.6 mg/dL
- RALB [3]: 3.5 g/dL
- TBIL [3]: 0.2 mg/dL
- TC [3]: 72.8 mg/dL
- TG [3]: 118.4 mg/dL
- TP [3]: 5.8 g/dL
- gamma-GTP [3]: 0.8 IU/L
- A/G [4]: 1.4
- ALP [4]: 637.4 IU/L
- ALT [4]: 33.6 IU/L
- AST [4]: 67.4 IU/L
- BUN [4]: 15.8 mg/dL
- CRE [4]: 0.5 mg/dL
- Ca [4]: 10.1 mg/dL
- Cl [4]: 103.8 meq/L
- DBIL [4]: 0.1 mg/dL
- GLC [4]: 198.2 mg/dL
- IP [4]: 6.1 mg/dL
- K [4]: 4 meq/L
- LDH [4]: 173.2 IU/L
- Na [4]: 141.6 meq/L
- PL [4]: 142.8 mg/dL
- RALB [4]: 3.6 g/dL
- TBIL [4]: 0.2 mg/dL
- TC [4]: 67.6 mg/dL
- TG [4]: 148.2 mg/dL
- TP [4]: 6.1 g/dL
- gamma-GTP [4]: 1.2 IU/L
- TERMINAL_BW [5]: 239.1 g
- APTT [5]: 18.8 s
- Bas [5]: 0.8%
- Eos [5]: 0.8%
- Fbg [5]: 276 mg/dL
- Hb [5]: 11.8 g/dL
- Ht [5]: 35.5%
- Lym [5]: 69.8%
- MCH [5]: 21 pg
- MCHC [5]: 33.2%
- MCV [5]: 63.4 fL
- Mono [5]: 3.8%
- Neu [5]: 24.4%
- PT [5]: 11.3 s
- Plat [5]: 122.1 x10_4/uL
- RBC [5]: 561.4 x10_4/ul
- Ret [5]: 6.3%
- WBC [5]: 144.7 x10_2/uL
- KIDNEY_L [5]: 1.1 g
- KIDNEY_R [5]: 1.1 g
- KIDNEY_TOTAL [5]: 2.2 g
- LIVER [5]: 11.7 g
- A/G [5]: 1.4
- ALP [5]: 872.4 IU/L
- ALT [5]: 37.2 IU/L
- AST [5]: 65 IU/L
- BUN [5]: 12 mg/dL
- CRE [5]: 0.4 mg/dL
- Ca [5]: 10.4 mg/dL
- Cl [5]: 104.4 meq/L
- DBIL [5]: 0.098 mg/dL
- GLC [5]: 220.2 mg/dL
- IP [5]: 7.4 mg/dL
- K [5]: 4.5 meq/L
- LDH [5]: 198.6 IU/L
- Na [5]: 140.8 meq/L
- PL [5]: 150 mg/dL
- RALB [5]: 3 g/dL
- TBIL [5]: 0.2 mg/dL
- TC [5]: 74 mg/dL
- TG [5]: 154 mg/dL
- TP [5]: 5.2 g/dL
- gamma-GTP [5]: 1.6 IU/L
- TERMINAL_BW (1 mg/kg, […], dose level Middle, time 7 day): 275.8 g
